The values below come from patent US10533000B2, “Metabotrophic glutamate receptor 5 modulators and methods of use thereof” (Sunovion Pharmaceuticals, Inc., priority 2011, dated 2020).

Bounds are passed on as bounds.

The target in this test is mGluR5 (Homo sapiens, UniProt P41594). Kind of test: mGluR5 positive allosteric modulator (PAM) functional assay. The test is classed as cell-based.
Sequence of mGluR5 (P41594 21-1212): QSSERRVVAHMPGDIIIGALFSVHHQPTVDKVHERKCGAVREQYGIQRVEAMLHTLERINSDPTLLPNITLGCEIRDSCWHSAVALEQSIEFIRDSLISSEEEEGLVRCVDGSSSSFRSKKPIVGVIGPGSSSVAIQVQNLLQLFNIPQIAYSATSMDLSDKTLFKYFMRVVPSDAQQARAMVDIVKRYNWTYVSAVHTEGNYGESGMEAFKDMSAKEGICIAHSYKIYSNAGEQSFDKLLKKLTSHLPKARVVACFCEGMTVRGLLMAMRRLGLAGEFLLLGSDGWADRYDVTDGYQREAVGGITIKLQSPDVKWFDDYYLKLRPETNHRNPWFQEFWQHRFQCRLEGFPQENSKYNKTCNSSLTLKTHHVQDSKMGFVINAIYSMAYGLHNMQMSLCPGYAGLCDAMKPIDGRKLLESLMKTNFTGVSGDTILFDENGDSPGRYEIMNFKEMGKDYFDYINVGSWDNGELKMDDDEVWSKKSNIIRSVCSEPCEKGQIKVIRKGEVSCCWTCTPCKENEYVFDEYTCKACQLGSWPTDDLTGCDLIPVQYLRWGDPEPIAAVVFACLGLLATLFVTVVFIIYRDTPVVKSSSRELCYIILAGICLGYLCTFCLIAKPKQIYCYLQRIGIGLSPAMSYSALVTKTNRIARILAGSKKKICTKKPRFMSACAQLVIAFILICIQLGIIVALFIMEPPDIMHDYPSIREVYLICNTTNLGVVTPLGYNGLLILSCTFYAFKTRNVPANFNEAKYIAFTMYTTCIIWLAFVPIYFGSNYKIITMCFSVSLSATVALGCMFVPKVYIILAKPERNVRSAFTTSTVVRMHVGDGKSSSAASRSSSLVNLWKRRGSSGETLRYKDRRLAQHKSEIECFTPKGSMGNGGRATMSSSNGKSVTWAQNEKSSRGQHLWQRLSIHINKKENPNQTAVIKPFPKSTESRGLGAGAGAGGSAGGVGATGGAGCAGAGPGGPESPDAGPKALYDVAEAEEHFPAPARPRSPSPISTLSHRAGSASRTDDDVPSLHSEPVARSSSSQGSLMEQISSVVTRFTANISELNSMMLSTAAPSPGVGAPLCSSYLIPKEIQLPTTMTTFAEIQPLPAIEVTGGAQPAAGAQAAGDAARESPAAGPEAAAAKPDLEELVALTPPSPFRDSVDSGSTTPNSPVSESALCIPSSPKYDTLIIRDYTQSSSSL

On to `CCC(C)c1nc(-c2ccc(C#Cc3cccc(F)c3)nc2)no1` (stereo not drawn) [Compound 82, 5-(sec-butyl)-3-(6-((3-fluorophenyl)ethynyl)pyridin-3-yl)-1,2,4-oxadiazole], for which the EC50 (as a rule, the concentration giving half of the maximal effect) is 30 to 100 nM. For `CCC(CC)c1nc(-c2ccc(C#Cc3ccccn3)nc2)no1` [Compound 87, 5-(pentan-3-yl)-3-(6-(pyridin-2-ylethynyl)pyridin-3-yl)-1,2,4-oxadiazole], the EC50 is at most 30 nM. For `CC(C)NC(C)c1nc(-c2ccc(C#Cc3ccccn3)cn2)no1` (stereo not drawn) [Compound 140, N-(1-(3-(5-(pyridin-2-ylethynyl)pyridin-2-yl)-1,2,4-oxadiazol-5-yl)ethyl)propan-2-amine], the EC50 lay within 100 to 300 nM. `CCC(OC)c1nc(-c2ccc(C#Cc3ccncc3)cn2)no1` (stereo not drawn) [Compound 161, 5-(1-methoxypropyl)-3-(5-(pyridin-4-ylethynyl)pyridin-2-yl)-1,2,4-oxadiazole] returned an EC50 of 30 to 100 nM. Compound `Fc1cccc(C#Cc2ccc(-c3noc(C4CCCN4C4CCC4)n3)nc2)c1` (stereo not drawn) [Compound 126, 5-(1-cyclobutylpyrrolidin-2-yl)-3-(5-((3-fluorophenyl)ethynyl)pyridin-2-yl)-1,2,4-oxadiazole] had an EC50 of 30 to 100 nM. With `CCC(C)c1nc(-c2ccc(C#Cc3ccncc3)cn2)no1` (stereo not drawn) [Compound 158, 5-(sec-butyl)-3-(5-(pyridin-4-ylethynyl)pyridin-2-yl)-1,2,4-oxadiazole] the figure was at most 30 nM; with `C(#Cc1ccccn1)c1ccc(-c2noc(C3CCCC3)n2)nc1` [Compound 137, 5-cyclopentyl-3-(5-(pyridin-2-ylethynyl)pyridin-2-yl)-1,2,4-oxadiazole], 30 to 100 nM; with `Fc1cccc(C#Cc2ccc(-c3noc(C4CCCC4)n3)cc2)c1` [Compound 32, 5-cyclopentyl-3-(4-((3-fluorophenyl)ethynyl)phenyl)-1,2,4-oxadiazole], 100 to 300 nM. With `CCC(CC)c1nc(-c2ccc(C#Cc3ccccn3)cn2)no1` [Compound 136, 5-(pentan-3-yl)-3-(5-(pyridin-2-ylethynyl)pyridin-2-yl)-1,2,4-oxadiazole] the figure was at most 30 nM; with `CN1C(c2nc(-c3ccc(C#Cc4ccccn4)cn3)no2)CCC1(C)C` (stereo not drawn) [Compound 153, 3-(5-(pyridin-2-ylethynyl)pyridin-2-yl)-5-(1,5,5-trimethylpyrrolidin-2-yl)-1,2,4-oxadiazole], 30 to 100 nM; with `CCC(OC)c1nc(-c2ccc(C#Cc3cccc(F)c3)nc2)no1` (stereo not drawn) [Compound 85, 3-(6-((3-fluorophenyl)ethynyl)pyridin-3-yl)-5-(1-methoxypropyl)-1,2,4-oxadiazole], at most 30 nM. The compound `CCC(CC)c1nc(-c2ccc(C#Cc3ccncc3)cc2)no1` [Compound 75, 5-(pentan-3-yl)-3-(4-(pyridin-4-ylethynyl)phenyl)-1,2,4-oxadiazole] registered an EC50 of 30 to 100 nM. In the case of `O[C@H]1CN[C@H](c2nc(-c3ccc(C#Cc4cccc(F)c4)cn3)no2)C1` [Compound 129, (3R,5S)-5-(3-(5-((3-fluorophenyl)ethynyl)pyridin-2-yl)-1,2,4-oxadiazol-5-yl)pyrrolidin-3-ol], the EC50 lay in the range of 300 to 1000 nM. `CCC(CC)c1nnc(-c2ccc(C#Cc3ccncc3)cc2)o1` [Compound 3, 2-(pentan-3-yl)-5-(4-(pyridin-4-ylethynyl)phenyl)-1,3,4-oxadiazole] displayed an EC50 of 30 to 100 nM. With `CNCc1nc(-c2ccc(C#Cc3cccc(F)c3)cn2)no1` [Compound 102, 1-(3-(5-((3-fluorophenyl)ethynyl)pyridin-2-yl)-1,2,4-oxadiazol-5-yl)-N-methylmethanamine] the figure was 300 to 1000 nM; with `CCC(NC1CC1)c1nc(-c2ccc(C#Cc3ccccn3)cn2)no1` (stereo not drawn) [Compound 149, N-(1-(3-(5-(pyridin-2-ylethynyl)pyridin-2-yl)-1,2,4-oxadiazol-5-yl)propyl)cyclopropanamine], 300 to 1000 nM.

In the case of `Fc1cccc(C#Cc2ccc(-c3noc(C4CCCN4CCC(F)(F)F)n3)nc2)c1` (stereo not drawn) [Compound 123, 3-(5-((3-fluorophenyl)ethynyl)pyridin-2-yl)-5-(1-(3,3,3-trifluoropropyl)pyrrolidin-2-yl)-1,2,4-oxadiazole], the EC50 was at most 30 nM. With `CCC(OC)c1nc(-c2ccc(C#Cc3ccccn3)nc2)no1` (stereo not drawn) [Compound 89, 5-(1-methoxypropyl)-3-(6-(pyridin-2-ylethynyl)pyridin-3-yl)-1,2,4-oxadiazole], the half-maximal effective concentration (EC50) lay within 300 to 1000 nM.

The compound `CC(c1nc(-c2ccc(C#Cc3ccccn3)cn2)no1)N1CCCC1` (stereo not drawn) [Compound 142, 3-(5-(pyridin-2-ylethynyl)pyridin-2-yl)-5-(1-(pyrrolidin-1-yl)ethyl)-1,2,4-oxadiazole] gave an EC50 of 30 to 100 nM. For the compound `CC1(c2nc(-c3ccc(C#Cc4cccc(F)c4)cn3)no2)CCCN1` (stereo not drawn) [Compound 122, 3-(5-((3-fluorophenyl)ethynyl)pyridin-2-yl)-5-(2-methylpyrrolidin-2-yl)-1,2,4-oxadiazole], the EC50 lay within 100 to 300 nM. In turn, `C[C@@H](c1nc(-c2ccc(C#Cc3cccc(F)c3)cn2)no1)N(C)C` [Compound 106, (S)-1-(3-(5-((3-fluorophenyl)ethynyl)pyridin-2-yl)-1,2,4-oxadiazol-5-yl)-N,N-dimethylethanamine] came in with an EC50 of at most 30 nM. `COC(C)c1nc(-c2ccc(C#Cc3cccc(F)c3)nc2)no1` (stereo not drawn) [Compound 84, 3-(6-((3-fluorophenyl)ethynyl)pyridin-3-yl)-5-(1-methoxyethyl)-1,2,4-oxadiazole] had an EC50 of 30 to 100 nM. With `CCN(CC)C(C)c1nc(-c2ccc(C#Cc3cccc(F)c3)cn2)no1` (stereo not drawn) [Compound 111, N,N-diethyl-1-(3-(5-((3-fluorophenyl)ethynyl)pyridin-2-yl)-1,2,4-oxadiazol-5-yl)ethanamine] the figure was at most 30 nM; with `CC(C)(C)c1noc(-c2ccc(C#Cc3cccc(F)c3)cc2)n1` [Compound 17, 3-(tert-butyl)-5-(4-((3-fluorophenyl)ethynyl)phenyl)-1,2,4-oxadiazole], 300 to 1000 nM. `Fc1cccc(C#Cc2ccc(-c3noc(C4CCCC4)n3)nc2)c1` [Compound 95, 5-cyclopentyl-3-(5-((3-fluorophenyl)ethynyl)pyridin-2-yl)-1,2,4-oxadiazole] returned a 50% effective concentration (EC50) of at most 30 nM. With `CCC(N)c1nc(-c2ccc(C#Cc3cccc(F)c3)cn2)no1` (stereo not drawn) [Compound 114, 1-(3-(5-((3-fluorophenyl)ethynyl)pyridin-2-yl)-1,2,4-oxadiazol-5-yl)propan-1-amine] the figure was 100 to 300 nM; with `CCOC(=O)NC(CC)c1nc(-c2ccc(C#Cc3ccccn3)cn2)no1` (stereo not drawn) [Compound 146, ethyl (1-(3-(5-(pyridin-2-ylethynyl)pyridin-2-yl)-1,2,4-oxadiazol-5-yl)propyl)carbamate], 100 to 300 nM; with `CN1C[C@H](O)C[C@H]1c1nc(-c2ccc(C#Cc3cccc(F)c3)cn2)no1` [Compound 130, (3R,5S)-5-(3-(5-((3-fluorophenyl)ethynyl)pyridin-2-yl)-1,2,4-oxadiazol-5-yl)-1-methylpyrrolidin-3-ol], 30 to 100 nM. With `C(#Cc1ccccn1)c1ccc(-c2noc(C34CCCN3CCC4)n2)nc1` [Compound 170, 5-(hexahydro-1H-pyrrolizin-7a-yl)-3-(5-(pyridin-2-ylethynyl)pyridin-2-yl)-1,2,4oxadiazole] the figure was 30 to 100 nM; with `CCN(C)c1nc(-c2ccc(C#Cc3cccc(F)c3)cc2)no1` [Compound 61, N-ethyl-3-(4-((3-fluorophenyl)ethynyl)phenyl)-N-methyl-1,2,4-oxadiazol-5-amine], 300 to 1000 nM.

In turn, `CC(c1nnc(-c2ccc(C#Cc3ccccn3)cn2)n1C)N1CCCC1` (stereo not drawn) [Compound 10, 2-(4-methyl-5-(1-(pyrrolidin-1-yl)ethyl)-4H-1,2,4-triazol-3-yl)-5-(pyridin-2-ylethynyl)pyridine] yielded an EC50 of 100 to 300 nM. Take `CN1CCCC1(C)c1nc(-c2ccc(C#Cc3cccc(F)c3)cn2)no1` (stereo not drawn) [Compound 51, 5-(1,2-dimethylpyrrolidin-2-yl)-3-(5-((3-fluorophenyl)ethynyl)pyridin-2-yl)-1,2,4-oxadiazole]: the EC50 is at most 30 nM.

As for `CNC(C)c1nc(-c2ccc(C#Cc3ccncc3)cc2)no1` (stereo not drawn) [Compound 79, N-methyl-1-(3-(4-(pyridin-4-ylethynyl)phenyl)-1,2,4-oxadiazol-5-yl)ethanamine], the half-maximal effective concentration (EC50) lay in the range of 100 to 300 nM. With `COC(C)c1nc(-c2ccc(C#Cc3cccc(F)c3)cn2)no1` (stereo not drawn) [Compound 96, 3-(5-((3-fluorophenyl)ethynyl)pyridin-2-yl)-5-(1-methoxyethyl)-1,2,4-oxadiazole] the figure was at most 30 nM. Regarding `CC[C@@H](C)c1nc(-c2ccc(C#Cc3ccncc3)cc2)no1` (single isomer, unassigned) [Compound 73], the EC50 was 30 to 100 nM.

The compound `CN1CC(F)(F)C[C@H]1c1nc(-c2ccc(C#Cc3ccccn3)cn2)no1` [Compound 155, (S)-5-(4,4-difluoro-1-methylpyrrolidin-2-yl)-3-(5-(pyridin-2-ylethynyl)pyridin-2-yl)-1,2,4-oxadiazole] returned an EC50 of 100 to 300 nM.

Compound `Fc1cccc(C#Cc2ccc(-c3noc(C4CCCN4C4CCC4)n3)cc2)c1` (stereo not drawn) [Compound 50, 5-(1-cyclobutylpyrrolidin-2-yl)-3-(4-((3-fluorophenyl)ethynyl)phenyl)-1,2,4-oxadiazole] registered an EC50 of 300 to 1000 nM.

Regarding `CCC(C)c1nc(-c2ccc(C#Cc3cccc(F)c3)cc2)no1` (stereo not drawn) [Compound 29, 5-5-(sec-butyl)-3-(4-((3-fluorophenyl)ethynyl)phenyl)-1,2,4-oxadiazole], the EC50 is 100 to 300 nM. `CC[C@@H](C)c1nc(-c2ccc(C#Cc3cccc(F)c3)cc2)no1` (single isomer, unassigned) [Compound 31] came in with a concentration for a half-maximal effect (EC50) of 300 to 1000 nM.

The compound `CC(c1nc(-c2ccc(C#Cc3ccncc3)cc2)no1)N(C)C` (stereo not drawn) [Compound 80, N,N-dimethyl-1-(3-(4-(pyridin-4-ylethynyl)phenyl)-1,2,4-oxadiazol-5-yl)ethanamine] came in with an EC50 of at most 30 nM. As to `CCC(C)c1nnc(-c2ccc(C#Cc3cccc(F)c3)cc2)o1` (stereo not drawn) [Compound 2, 2-(sec-butyl)-5-(4-((3-fluorophenyl)ethynyl)phenyl)-1,3,4-oxadiazole], the EC50 lay within 100 to 300 nM. With `CCC(CC)c1nc(-c2ccc(C#Cc3ccncc3)cn2)no1` [Compound 160, 5-(pentan-3-yl)-3-(5-(pyridin-4-ylethynyl)pyridin-2-yl)-1,2,4-oxadiazole] the figure was 30 to 100 nM.
